US10232023B2, “Methods for treatment of and prophylaxis against inflammatory disorders” (THE UNIVERSITY OF UTAH RESEARCH FOUNDATION, priority 2013, dated 2019)

Experiments:
NET formation = NET formation inhibition (test not described); conditions: no test described
LPS-stimulated PMNs = experiment: NET formation by LPS-stimulated adult human PMNs (live cell imaging, histone H3 release); assay type: cell-based; conditions: LPS 100 ng/mL; for NET formation by LPS-stimulated PMNs: healthy adult PMNs, peptide/protein pre-incubation 1 hour (1 nM where stated)
[1] = system: PMA-stimulated adult PMNs; experiment: NET formation by PMA-stimulated adult human PMNs; assay type: cell-based; conditions: pre-incubation 1 nM, 1 hour; PMA 20 nM
[2] = system: Outbred Swiss-Webster mice, E. coli peritonitis; experiment: Murine E. coli peritonitis: peritoneal fluid and membrane analysis; assay type: in vivo, mouse
Experimental: Outbred Swiss-Webster mice were injected intraperitoneally with 4.5×10^7 colony-forming units (cfu) of E. coli±nNIF, CRISPP, or scrambled control peptide (SCR) (10 mg/kg, IP injection) one hour prior to E. coli infection. At the 3 hour time point after infection, 3 mice were sacrificed and the peritoneal fluid and peritoneal tissue were collected and analyzed for leukocyte accumulation, bacteriology, and in vivo NET formation. […] See Fuchs et al., J Cell Biol, 2007, 176: 231-241. The number of E. coli cfu/mL of peritoneal fluid in CRISPP pretreated mice was also determined compared to SCR mice (see FIG. 17C).
Animals were treated with CRISPP (10 mg/kg), nNIF (10 mg/kg), or SCR (10 mg/kg) by i.p. injection 1 hour prior to infection (E. coli, 4.5×10^7 cfu/mouse, i.p. injection) or stimulation (LPS, 25 mg/kg, i.p. injection (SIGMA)). Control mice were injected with saline alone. The mice were sacrificed in a CO2 chamber 3 hours post-infection/stimulation with the peritoneal contents harvested and analyzed. Briefly, the skin of the abdomen was cut open in the midline after thorough disinfection and without injuring the muscle. The peritoneal cavity was lavaged with sterile saline solution ([…]) and analyzed for in vivo NET formation, bacteriology, and leukocyte accumulation. NETs in the peritoneal fluid were qualitatively and quantitatively analyzed using live cell imaging with confocal microscopy and histone release assays. NETs on the inner surface of the peritoneal membrane were assessed quantitatively using live cell imaging followed by standardized grid analysis of 5 randomly selected high power visual fields per tissue sample (IMAGE-J software, NIH). Peritoneal bacterial colony forming units (cfu) counts were quantified by permeabilizing all recovered leukocytes with 0.1% Triton-X 100 for 10 minutes and performing serial dilutions and bacterial cultures on 5% sheep blood agar plates (HARDY DIAGNOSTICS). After a 24-hour incubation, bacterial counts were determined. Total leukocyte counts in the peritoneal lavage were determined in Neubauer chambers using an optical microscope after dilution in Turk's solution (2% acetic acid). Differential leukocyte analysis was performed using a 60× oil immersion objective to assess morphology of cyto-centrifuged cells stained with May-Grunwald-Giemsa dye.

[3] = system: PMNs isolated from healthy adult donors; experiment: PMN chemotaxis, modified Boyden Chamber assay; assay type: cell-based, human; conditions: 1 nM, one hour pre-incubation; IL-8 2 ng/mL
Experimental: Chemotaxis by PMNs isolated from healthy adult donors was assessed using a modified Boyden Chamber assay±a one hour pre-incubation […] (1 nM), or SCR (1 nM). Recombinant human IL-8 (2 ng/mL) was used as the chemoattractant. Chemotaxis through a 5 micron filter was determined by counting PMNs in 10 randomly selected high-power fields as previously described in Hill et al., Lancet, 1974, 2: 617-619. In separate experiments, […], or SCR (all at 1 nM) were evaluated for chemoattractant activity using the same system.

[4] = system: PMNs isolated from healthy adult donors; experiment: PMN phagocytosis of E. coli BIOPARTICLES; assay type: cell-based, human; conditions: 1 nM, 60 minutes pre-incubation, 4 hours
Experimental: PMNs were isolated from blood of healthy adult donors and resuspended in M-199 at a concentration of 2×10^6 cells/mL. Leukocytes were pre-incubated for 60 minutes under standard conditions with cytochalasin B and […] (1 nM), or SCR (1 nM). Following pre-incubation, PMNs were incubated with 6×10^6 E. coli BIOPARTICLES (E-13231, MOLECULAR PROBES) on a rotator for 4 hours under standard conditions. The PMNs were then washed and resuspended in the starting volume in M-199 before being spun down onto glass coverslips and fixed with 2% paraformaldehyde for 10 minutes and permeabilized with 0.1% Triton-X-100 for 10 minutes. Leukocytes were stained with WGA 555 (INVITROGEN) and TO[…] (MOLECULAR PROBES) and randomly selected high power visual field images were captured using confocal microscopy. IMAGE-J software (NIH) was used to determine the percentage of PMNs that were positive for fluorescently labeled E. coli BIOPARTICLES detected at 488 nm.

[5] = system: LPS-stimulated human PMNs; experiment: Reactive oxygen species generation, dihydrorhodamine assay; assay type: cell-based; conditions: 1 nM, 1 hour pre-incubation; LPS 100 ng/mL
Experimental: Human PMNs isolated from healthy adult whole blood were resuspended to a concentration of 2×10^6 cells/mL in M-199 media and pre-incubated±[…] (1 nM) or SCR (1 nM) peptide for 1 hour under standard conditions. The PMNs were then stimulated with LPS (100 ng/mL) for 1 hour, washed, and resuspended with a dihydrorhodamine (7.25 mM; D-632, MOLECULAR PROBES) and catalase (1000 Units/mL; C-40, SIGMA) mixture and incubated at 37° C. for 10 minutes. After incubation, samples were placed at 4° C. and analyzed for ROS-dependent fluorescence using a BECTON-DICKINSON FACSCAN device equipped with CELLQUEST software.

[6] = system: human PMNs stimulated with phorbol 12-myristate acetate (PMA); conditions: background statement; cited from earlier work
PMA-stimulated PMNs = experiment: Nuclear decondensation (nuclear area) assay; assay type: cell-based, human; conditions: CRISPP 1 nM, SCR 1 nM, Sivelestat 200 nM; PMA 20 nM, 2 hours; vs PMA alone
Experimental: Using techniques modified from Papayannopoulos et al., J Cell Biol, 2010, 191: 677-691, nuclear area assays were used for PMA-stimulated PMNs as a surrogate for NET formation. PMNs were stimulated with PMA (20 nM) for 2 hours and then visualized via live cell imaging with a cell permeable DNA dye. Images from 5 randomly selected high power fields were captured and the nuclear area of all PMNs on each visual field was quantitated using IMAGEJ software. Nuclear areas were compared for PMNs stimulated with PMA with PMNs pre-incubated with CRISPP (1 nM), SCR (1 nM), or the NE inhibitor Sivelestat (200 nM). […] Next, immunocytochemical experiments designed to see whether CRISPP is taken up by human PMNs were performed. The CRISPP-F and SCR-F peptides and FLAG-tag specific primary antibodies were used to assess cellular location. […] CRISPP can inhibit nuclear chromatin decondensation, which is consistent with the selective inhibition of NET formation by CRISPP and nNIF. This process may involve inhibition of NE activity.
PMNs were isolated and resuspended to 2×10^6 cells/mL in M-199 media. […] 5 randomly selected high power visual fields per sample were captured via confocal microscopy and analyzed for nuclear area using the cell-permeable, fluorescent DNA dye SYTO Green. The nuclear pixel areas of >100 individual cells per high power field were determined using IMAGE-J software (NIH).

[7] = 10 mg/kg IP pretreatment, vs SCR control

Molecule: A1ATm^358: cleavage fragment of full length A1AT (SEQ ID NO:3), an nNIF-related peptide (PMSIPPEVKFNKPFVFLMIEQNTKSPLFMGKVVNPTQK; homo sapiens)
- NET formation (NET formation): inhibit NET formation

Molecule: neonatal NET-Inhibitory Factor (KAVLTIDEKGTEAAGAMFLEAIPMSIPPEVKFNKPFVFLMIEQNTKSPLFMGKVVNPTQK; listed as Homo sapiens) [nNIF]
- NET formation by LPS-stimulated PMNs (LPS-stimulated PMNs): significantly inhibited NET formation
- NET formation by PMA-stimulated PMNs [1]: significantly inhibited NET formation
- NET formation by histone H3 release assay of the peritoneal fluid [2, 7]: significant quantitative decrease
- NET formation in the peritoneal fluid (live cell imaging) [2, 7]: qualitative decrease
- Peritoneal membrane-associated NET formation ([2]; freshly resected peritoneal membrane, live cell imaging, standardized grid): qualitative and quantitative decrease
- PMN chemotaxis [3]: did not significantly inhibit
- PMN phagocytosis [4]: did not significantly inhibit
- Reactive oxygen species generation [5]: did not significantly inhibit

Molecule: alpha 1-antitrypsin [A1AT]
- NET formation by LPS-stimulated PMNs (LPS-stimulated PMNs): failed to inhibit NET formation
- NET formation by LPS-stimulated PMNs, recombinant AAT in nNIF-depleted cord blood plasma (LPS-stimulated PMNs; rAAT (1 nM) added to nNIF-depleted cord blood plasma, listed as recombinant full length A1AT): did not inhibit NET formation
- NET formation in PMA-stimulated human PMNs [6]: does not inhibit NET formation

Molecule: CC(C)(C)C(=O)Oc1ccc(S(=O)(=O)Nc2ccccc2C(=O)NCC(=O)O)cc1 [Sivelestat, reference compound]
- Nuclear area of PMA-stimulated PMNs (PMA-stimulated PMNs): significant decrease in nuclear area

B1: recombinant serpin B1: serine protease inhibitor expressed as a cytoplasmic protein by human PMNs (protein, UniProt P30740 1-379, looked up)
Leukocyte elastase inhibitor: MEQLSSANTRFALDLFLALSENNPAGNIFISPFSISSAMAMVFLGTRGNTAAQLSKTFHFNTVEEVHSRFQSLNADINKRGASYILKLANRLYGEKTYNFLPEFLVSTQKTYGADLASVDFQHASEDARKTINQWVKGQTEGKIPELLASGMVDNMTKLVLVNAIYFKGNWKDKFMKEATTNAPFRLNKKDRKTVKMMYQKKKFAYGYIEDLKCRVLELPYQGEELSMVILLPDDIEDESTGLKKIEEQLTLEKLHEWTKPENLDFIEVNVSLPRFKLEESYTLNSDLARLGVQDLFNSSKADLSGMSGARDIFISKIVHKSFVEVNEEGTEAAAATAGIATFCMLMPEENFTADHPFLFFIRHNSSGSILFLGRFSSP
- NET formation in PMA-stimulated human PMNs [6]: inhibits NET formation
